Consider six molecules from patent US20060069163A1, “Method for treating Alzheimer's disease” (Pfizer Inc, priority 2000, published 2006).

Molecules are shown by their SMILES. Entries after “also recorded” stand apart in the source; their conditions may differ.

The first test deals with β-amyloid peptide (Aβ) synthesized by β APP-CHO cells. As to the kind of experiment: Aβ production in βAPP-CHO cells, sandwich ELISA. It counts as cell-based, Chinese hamster. The following applies: CHO cells overexpressing human βAPP; test compounds added at various dose concentrations to the medium; FIG. 5 and FIG. 6. From the text:
This experiment was designed to determine the ability of lipid regulating agents to alter the production of β-amyloid peptide (Aβ) in cultured cells, and their consequent activity in preventing and treating Alzheimer's Disease.
Chinese hamster ovary (CHO) cells were stably transfected with a construct to enable the overexpression of the human β-amyloid precursor protein (βAPP) gene to cause increased production of Aβ. The measurement of Aβ synthesized by these β APP-CHO cells was done using a standard sandwich ELISA assay, employing well-characterized antibodies to the N-terminus (6E10) and middle (4G8) of Aβ. This assay is routinely used to measure Aβ in tissues, body fluids, and cell culture media. Cultures of β APP-CHO cells were grown to near confluency, and then the test compounds were added at various dose concentrations to the cell medium.
For `Cc1ccc(C)c(OCCCC(C)(C)C(=O)O)c1` [CI-719, gemfibrozil], the “reduction in Aβ” value is reported as “only moderate changes”.
On the same count and under the same terms, the entry for `CC[C@H](C)C(=O)O[C@H]1C[C@@H](C)C=C2C=C[C@H](C)[C@H](CC[C@@H]3C[C@@H](O)CC(=O)O3)[C@H]21` [lovastatin] is “dose-dependent inhibition; also recorded: dramatic dose-dependent reduction”.
For the molecule `CC[C@H](C)C(=O)O[C@H]1CCC=C2C=C[C@H](C)[C@H](CC[C@@H]3C[C@@H](O)CC(=O)O3)[C@H]21` [mevastatin], the “reduction in Aβ” value is reported as “dose-dependent inhibition”.
On to `CC(C)(CCCCOCCCCC(C)(C)C(=O)O)C(=O)O` [CI-1027], for which the “reduction in Aβ” value is “only moderate changes”.
Still for that read-out and setting: the entry for `CC(C)c1cc(C(C)C)c(CC(=O)NS(=O)(=O)Oc2c(C(C)C)cccc2C(C)C)c(C(C)C)c1` [Avasimibe] is “substantial dose-dependent reduction”.
The same measure, in the same setting: the entry for `c1coc(CSC2=NCCS2)c1` [PD 69405] is “only moderate changes”.

The same test, now with this note: CHO cells overexpressing human βAPP; test compounds added at various dose concentrations to the medium; FIG. 5 and FIG. 6; listed as Mevastatin.
In the case of `CC[C@H](C)C(=O)O[C@H]1CCC=C2C=C[C@H](C)[C@H](CC[C@@H]3C[C@@H](O)CC(=O)O3)[C@H]21` [mevastatin], the “reduction in Aβ” value is on record as “dramatic dose-dependent reduction”.
